# From article PMC6534110, “Enzyme characterization and biological activities of a resuscitation promoting factor from an oil degrading bacterium Rhodococcus erythropolis KB1” (PeerJ, 2019)
# Target: T1, Rpf-1 (Rhodococcus erythropolis, UniProt C0ZMT9)
# T1 construct: N-terminal Trx-His-S tag of pET-32a(+) kept (37 kDa on SDS-PAGE); forward primer encodes MSGRHR, reverse primer encodes C-terminal AKTFLK; conserved Cys50, Glu51, Cys114
# Test: fluorogenic hydrolysis, 4-methylumbelliferone release ([…] nm)
# Type: biochemical
# Details: 22 μM printed, McIlvaine phosphate-citrate buffer pH 5.2, 37 °C, 30 min
# T1 sequence (C0ZMT9 entry or part of it): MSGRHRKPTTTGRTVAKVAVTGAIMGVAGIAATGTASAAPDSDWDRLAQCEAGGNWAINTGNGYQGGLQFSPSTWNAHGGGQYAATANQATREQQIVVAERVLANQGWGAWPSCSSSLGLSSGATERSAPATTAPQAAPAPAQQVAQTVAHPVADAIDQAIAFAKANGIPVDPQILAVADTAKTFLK
compound,measurement,value
"CC(=O)N[C@H]1[C@H](Oc2ccc3c(C)cc(=O)oc3c2)O[C@H](CO)[C@@H](O[C@@H]2O[C@H](CO)[C@@H](O[C@@H]3O[C@H](CO)[C@@H](O)[C@H](O)[C@H]3NC(C)=O)[C@H](O)[C@H]2NC(C)=O)[C@@H]1O [4-methylumbelliferyl-β-D-N,N′,N″-triacetylchitotrioside]","fluorogenic hydrolysis, 4-methylumbelliferone release (360/455 nm)",The recombinant Rpf-1 showed muralytic activity when determined with the artificial lysozyme substrate
